The source of these data is US20230345943A1, “METHOD AND PROCESS FOR COMPLETE ELIMINATION OF VARIOUS STEPS OF PEST GROWTH IN PLANTS USING DI[…] BASED ON ETHA[…] AND HYDROGEN PEROXIDE” (priority 2020, published 2023).

Assay [1] has as its system fungus, bacteria and viruses and plant pests in all stages such as eggs, larva, adults. The assay can be described thus: Spray with wetting agent to control plant pathogens and pests. The format is in vivo. The conditions noted are these: 3 liters (active ingredient at least 20%) plus 500 cc of non-ionic fatty amine compounds in 1000 liters of water. The source says: For longer durability of Ethaneperoxoic acid based compounds, non-ionic fatty amine compounds (wetting agent) should be used in this method for the first time in two different ways, both within the formulation or added separately to the compound. These compounds cause the Ethaneperoxoic acid that is sprayed on the target to increase the duration of exposure of Ethaneperoxoic acid to the chitin surface of insects due to the reduction of surface tension of water droplets.

For assay [2], the system named is Chilo suppressalis. The assay can be described thus: Field protocol against Chilo suppressalis in rice. The class given is in vivo. The conditions noted are these: six-step protocol, dosage of 1 to 2 in one thousand from transplantation treasury to before harvest. The source says: In this invention ethaneperoxoic acid used for the first time to fight with Chilo suppressalis with the below mentioned method: • Step 1: The dosage of 1 in one thousand in the transplantation treasury; • Step 2: At the time of transferring the seedlings to the field with the dosage of 1 in one thousand to fight with the first generation; • Step 3: 10 days after transferring the seedlings to the field with the dosage of 1 in one thousand to fight with the second generation; • Step 4: 30 days after transferring the seedlings to the field with the dosage of 1 in one thousand; • Step 5: 45 days after transferring the seedlings to the field with the dosage of 2 in one thousand and 1 in one thousand to fight with the third generation; • Step 6: before harvesting the rice with the dosage of 2 in one thousand.

As to `CC(=O)OO` [ethaneperoxoic acid], in assay [1], the “effect in controlling fungus, bacteria and viruses and plant pests in all stages” value is recorded as “significant impressive effect”. Also, the “damage due to the Chilo suppressalis” value in assay [2] is “completely control”.
